# Source: PMC7824535, “Inhibitory Effect of Antidesma bunius Fruit Extract on Carbohydrate Digestive Enzymes Activity and Protein Glycation In Vitro” (Antioxidants, 2020)
# Biological target: T1, intestinal maltase
# T1 construct: gene Mgam; native, supernatant of rat intestinal acetone powder, not purified; maltase activity of several enzymes
# Test: glucose release by glucose oxidase method, […] nm
# Assay type: biochemical
# Settings: maltose substrate (86 mM stock, 30 µL), 0.1 M phosphate buffer pH 6.9, 37 °C, 30 min; crude rat intestinal extract
smiles,measurement,value
C[C@H]1O[C@H](O[C@H]2[C@H](O)[C@@H](O)[C@@H](O[C@H]3[C@H](O)[C@@H](O)C(O)O[C@@H]3CO)O[C@@H]2CO)[C@H](O)[C@@H](O)[C@@H]1N[C@H]1C=C(CO)[C@@H](O)[C@H](O)[C@H]1O (stereo partly shown) [Acarbose],IC50 Values / Maltase,0.89 ± 0.07 µg/mL
